Experimental data reported in ChEMBL document CHEMBL1201862, “PubChem BioAssay data set” (2004).
Activity calls are given as the source filed them.

What was measured:
[1] = biological target: Lysine-specific demethylase 4C (Homo sapiens, UniProt Q9H3R0); assay: GASC-1 (JMJD2C) histone demethylase inhibitors, dose response, biochemical, DELFIA europium, cherry-picked samples (AID 488835); type: functional
Troponin, cardiac muscle = Troponin, cardiac muscle (Homo sapiens, UniProt P19429+P45379+P63316); assay: inhibitors of cardiac thin filament calcium sensitivity, dose response, biochemical, fluorescence, cardiac regulated thin filaments, triplicate IC50 (AID 504742); type: protein-complex assay
[2] = biological target: Voltage-gated N-type calcium channel alpha-1B subunit/Amyloid beta A4 precursor protein-binding family A member 1 (Homo sapiens, UniProt Q00975+Q02410); type: protein assay
Voltage-gated N-type calcium channel alpha-1B subunit/Amyloid beta A4 precursor protein-binding family A member 1, sequence (Q00975 whole entry): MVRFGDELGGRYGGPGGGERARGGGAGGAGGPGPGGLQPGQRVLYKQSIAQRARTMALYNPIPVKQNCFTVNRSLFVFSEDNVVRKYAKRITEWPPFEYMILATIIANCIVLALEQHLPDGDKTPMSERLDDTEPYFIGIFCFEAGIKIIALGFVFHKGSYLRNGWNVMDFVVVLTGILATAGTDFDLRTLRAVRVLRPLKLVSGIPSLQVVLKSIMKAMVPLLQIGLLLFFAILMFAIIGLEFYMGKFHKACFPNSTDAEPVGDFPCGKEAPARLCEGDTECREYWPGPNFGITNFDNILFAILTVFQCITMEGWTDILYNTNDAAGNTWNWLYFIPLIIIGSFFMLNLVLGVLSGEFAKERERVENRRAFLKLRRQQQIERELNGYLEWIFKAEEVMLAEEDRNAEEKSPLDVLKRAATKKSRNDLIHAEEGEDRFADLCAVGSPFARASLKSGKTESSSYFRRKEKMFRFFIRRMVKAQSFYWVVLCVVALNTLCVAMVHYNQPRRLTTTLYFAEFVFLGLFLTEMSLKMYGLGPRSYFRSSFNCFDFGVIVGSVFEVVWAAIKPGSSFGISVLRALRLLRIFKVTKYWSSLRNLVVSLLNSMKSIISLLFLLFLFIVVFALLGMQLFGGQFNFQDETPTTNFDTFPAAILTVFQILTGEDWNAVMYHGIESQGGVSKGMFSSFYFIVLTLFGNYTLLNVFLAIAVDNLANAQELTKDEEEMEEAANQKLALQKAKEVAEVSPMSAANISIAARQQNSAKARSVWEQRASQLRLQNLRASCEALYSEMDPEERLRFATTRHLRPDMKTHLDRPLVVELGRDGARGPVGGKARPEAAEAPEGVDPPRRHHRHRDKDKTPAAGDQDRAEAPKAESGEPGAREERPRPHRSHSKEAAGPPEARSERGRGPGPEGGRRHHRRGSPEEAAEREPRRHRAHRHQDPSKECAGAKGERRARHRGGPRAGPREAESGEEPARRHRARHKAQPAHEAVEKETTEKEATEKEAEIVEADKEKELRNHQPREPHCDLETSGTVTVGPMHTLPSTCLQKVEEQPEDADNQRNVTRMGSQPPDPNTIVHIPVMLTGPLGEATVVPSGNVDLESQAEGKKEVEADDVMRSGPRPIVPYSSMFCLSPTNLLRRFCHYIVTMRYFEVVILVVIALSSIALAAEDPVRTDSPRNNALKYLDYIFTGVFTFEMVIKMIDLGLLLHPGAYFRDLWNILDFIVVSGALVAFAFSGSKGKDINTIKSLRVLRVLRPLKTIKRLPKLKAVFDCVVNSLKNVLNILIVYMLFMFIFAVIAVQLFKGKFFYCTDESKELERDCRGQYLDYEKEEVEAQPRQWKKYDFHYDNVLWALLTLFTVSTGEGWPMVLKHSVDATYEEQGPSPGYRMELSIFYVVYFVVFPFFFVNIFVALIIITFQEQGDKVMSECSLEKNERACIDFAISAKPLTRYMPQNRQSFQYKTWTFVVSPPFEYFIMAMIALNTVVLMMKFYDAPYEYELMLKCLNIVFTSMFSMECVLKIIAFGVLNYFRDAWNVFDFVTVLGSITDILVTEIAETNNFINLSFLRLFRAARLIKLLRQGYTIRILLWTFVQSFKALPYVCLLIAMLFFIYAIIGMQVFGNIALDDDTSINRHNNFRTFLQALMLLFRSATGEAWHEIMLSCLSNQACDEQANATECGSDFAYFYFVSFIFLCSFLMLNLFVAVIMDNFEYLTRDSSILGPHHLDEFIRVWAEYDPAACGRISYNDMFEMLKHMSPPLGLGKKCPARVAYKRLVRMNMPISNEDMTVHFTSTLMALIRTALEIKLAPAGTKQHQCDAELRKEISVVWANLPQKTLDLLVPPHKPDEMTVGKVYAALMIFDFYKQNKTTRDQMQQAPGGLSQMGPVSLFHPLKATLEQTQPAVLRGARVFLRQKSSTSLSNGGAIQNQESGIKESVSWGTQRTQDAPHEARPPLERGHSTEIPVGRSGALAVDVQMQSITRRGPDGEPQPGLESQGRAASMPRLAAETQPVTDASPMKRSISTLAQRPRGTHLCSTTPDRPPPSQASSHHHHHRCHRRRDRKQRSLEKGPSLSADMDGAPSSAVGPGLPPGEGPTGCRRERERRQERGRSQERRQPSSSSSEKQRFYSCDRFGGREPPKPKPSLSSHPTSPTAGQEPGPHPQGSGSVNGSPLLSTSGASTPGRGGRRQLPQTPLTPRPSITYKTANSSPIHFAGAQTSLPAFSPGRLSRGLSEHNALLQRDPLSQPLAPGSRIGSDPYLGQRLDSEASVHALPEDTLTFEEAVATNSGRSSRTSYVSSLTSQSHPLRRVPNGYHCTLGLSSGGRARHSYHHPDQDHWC
Voltage-gated N-type calcium channel alpha-1B subunit/Amyloid beta A4 precursor protein-binding family A member 1, sequence (Q02410 whole entry): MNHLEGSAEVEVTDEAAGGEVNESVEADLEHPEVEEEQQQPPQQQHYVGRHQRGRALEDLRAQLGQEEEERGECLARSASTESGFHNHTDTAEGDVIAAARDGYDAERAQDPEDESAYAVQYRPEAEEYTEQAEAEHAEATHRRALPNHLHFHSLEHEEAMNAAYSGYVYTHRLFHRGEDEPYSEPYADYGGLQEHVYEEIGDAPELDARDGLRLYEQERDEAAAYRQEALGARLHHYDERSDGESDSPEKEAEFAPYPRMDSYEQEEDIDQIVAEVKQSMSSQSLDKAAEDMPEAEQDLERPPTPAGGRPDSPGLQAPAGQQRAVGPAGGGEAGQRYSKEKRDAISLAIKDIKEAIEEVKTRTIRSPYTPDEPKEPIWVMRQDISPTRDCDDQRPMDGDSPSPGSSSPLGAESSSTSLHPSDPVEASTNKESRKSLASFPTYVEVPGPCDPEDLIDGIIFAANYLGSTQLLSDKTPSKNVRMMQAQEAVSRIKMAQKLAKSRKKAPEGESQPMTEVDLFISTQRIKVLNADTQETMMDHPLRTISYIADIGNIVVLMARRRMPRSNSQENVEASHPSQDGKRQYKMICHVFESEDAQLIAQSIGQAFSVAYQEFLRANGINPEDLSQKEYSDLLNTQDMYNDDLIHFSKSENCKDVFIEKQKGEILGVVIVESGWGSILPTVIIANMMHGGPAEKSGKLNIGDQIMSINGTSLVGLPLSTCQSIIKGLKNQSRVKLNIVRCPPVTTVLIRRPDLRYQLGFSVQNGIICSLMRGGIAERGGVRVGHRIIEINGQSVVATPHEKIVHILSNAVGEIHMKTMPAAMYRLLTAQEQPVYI

[3] = biological target: T1, Rac GTPase-activating protein 1 (Homo sapiens, UniProt Q9H0H5); assay: MgcRacGAP GTPase-activating activity inhibitors, confirmation, biochemical, ADP Hunter fluorescence, primary and confirmatory (AID 624330); type: functional
T1 sequence (Q9H0H5 whole entry): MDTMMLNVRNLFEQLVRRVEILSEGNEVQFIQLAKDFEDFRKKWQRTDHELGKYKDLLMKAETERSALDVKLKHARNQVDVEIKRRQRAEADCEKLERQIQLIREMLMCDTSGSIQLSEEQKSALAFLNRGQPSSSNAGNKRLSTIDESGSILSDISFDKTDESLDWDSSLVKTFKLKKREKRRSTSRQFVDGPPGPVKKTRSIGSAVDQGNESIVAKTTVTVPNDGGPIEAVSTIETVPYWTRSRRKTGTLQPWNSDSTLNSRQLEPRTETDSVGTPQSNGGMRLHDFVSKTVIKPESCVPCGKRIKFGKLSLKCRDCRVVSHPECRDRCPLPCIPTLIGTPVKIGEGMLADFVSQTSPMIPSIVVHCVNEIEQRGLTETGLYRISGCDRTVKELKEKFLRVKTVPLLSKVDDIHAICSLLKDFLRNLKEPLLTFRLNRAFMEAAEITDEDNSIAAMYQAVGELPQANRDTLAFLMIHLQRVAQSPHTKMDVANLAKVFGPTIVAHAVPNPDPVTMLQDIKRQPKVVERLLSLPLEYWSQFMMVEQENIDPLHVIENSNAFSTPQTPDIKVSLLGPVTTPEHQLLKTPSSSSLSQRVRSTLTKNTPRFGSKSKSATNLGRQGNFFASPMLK

[4] = biological target: T2, 1-phosphatidylinositol 4,5-bisphosphate phosphodiesterase beta-3 (Homo sapiens, UniProt Q01970); assay: Fluorescence-based biochemical high throughput dose response assay to identify inhibitors of phospholipase C isozymes (PLC-B3).
T2 sequence (Q01970 whole entry): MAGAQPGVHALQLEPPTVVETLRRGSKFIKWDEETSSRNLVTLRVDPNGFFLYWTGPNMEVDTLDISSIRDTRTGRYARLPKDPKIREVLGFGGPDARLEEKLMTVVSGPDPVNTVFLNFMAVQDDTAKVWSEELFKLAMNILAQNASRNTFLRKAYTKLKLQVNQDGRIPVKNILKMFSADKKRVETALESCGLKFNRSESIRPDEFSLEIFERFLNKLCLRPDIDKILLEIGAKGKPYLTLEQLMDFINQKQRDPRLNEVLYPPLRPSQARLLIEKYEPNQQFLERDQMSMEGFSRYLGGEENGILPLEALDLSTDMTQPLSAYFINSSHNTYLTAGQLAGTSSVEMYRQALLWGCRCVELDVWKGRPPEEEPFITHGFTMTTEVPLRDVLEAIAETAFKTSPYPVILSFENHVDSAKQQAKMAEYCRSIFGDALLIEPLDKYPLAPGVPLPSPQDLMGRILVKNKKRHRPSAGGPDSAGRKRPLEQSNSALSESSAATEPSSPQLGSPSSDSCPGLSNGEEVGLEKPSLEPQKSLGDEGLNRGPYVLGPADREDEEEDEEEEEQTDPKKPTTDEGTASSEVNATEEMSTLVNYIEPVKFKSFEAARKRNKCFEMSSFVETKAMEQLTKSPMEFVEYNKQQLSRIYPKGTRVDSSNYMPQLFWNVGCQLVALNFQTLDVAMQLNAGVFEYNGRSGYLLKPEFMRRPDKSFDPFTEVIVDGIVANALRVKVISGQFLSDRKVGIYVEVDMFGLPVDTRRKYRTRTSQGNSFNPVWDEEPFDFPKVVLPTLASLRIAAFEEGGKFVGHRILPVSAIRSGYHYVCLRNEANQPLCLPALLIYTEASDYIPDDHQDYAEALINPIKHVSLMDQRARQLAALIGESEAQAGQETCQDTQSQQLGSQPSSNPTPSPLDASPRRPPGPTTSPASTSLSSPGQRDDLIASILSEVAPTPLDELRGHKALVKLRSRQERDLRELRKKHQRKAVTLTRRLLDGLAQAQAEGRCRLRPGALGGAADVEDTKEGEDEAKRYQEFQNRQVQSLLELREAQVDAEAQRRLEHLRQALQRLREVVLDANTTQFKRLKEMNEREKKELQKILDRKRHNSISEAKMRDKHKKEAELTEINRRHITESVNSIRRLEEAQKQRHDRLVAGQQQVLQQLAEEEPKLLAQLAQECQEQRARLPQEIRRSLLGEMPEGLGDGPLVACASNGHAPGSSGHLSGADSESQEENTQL

[5] = biological target: Histone-lysine N-methyltransferase NSD2 (Homo sapiens, UniProt O96028); type: biochemical
Histone-lysine N-methyltransferase NSD2, sequence (O96028 whole entry): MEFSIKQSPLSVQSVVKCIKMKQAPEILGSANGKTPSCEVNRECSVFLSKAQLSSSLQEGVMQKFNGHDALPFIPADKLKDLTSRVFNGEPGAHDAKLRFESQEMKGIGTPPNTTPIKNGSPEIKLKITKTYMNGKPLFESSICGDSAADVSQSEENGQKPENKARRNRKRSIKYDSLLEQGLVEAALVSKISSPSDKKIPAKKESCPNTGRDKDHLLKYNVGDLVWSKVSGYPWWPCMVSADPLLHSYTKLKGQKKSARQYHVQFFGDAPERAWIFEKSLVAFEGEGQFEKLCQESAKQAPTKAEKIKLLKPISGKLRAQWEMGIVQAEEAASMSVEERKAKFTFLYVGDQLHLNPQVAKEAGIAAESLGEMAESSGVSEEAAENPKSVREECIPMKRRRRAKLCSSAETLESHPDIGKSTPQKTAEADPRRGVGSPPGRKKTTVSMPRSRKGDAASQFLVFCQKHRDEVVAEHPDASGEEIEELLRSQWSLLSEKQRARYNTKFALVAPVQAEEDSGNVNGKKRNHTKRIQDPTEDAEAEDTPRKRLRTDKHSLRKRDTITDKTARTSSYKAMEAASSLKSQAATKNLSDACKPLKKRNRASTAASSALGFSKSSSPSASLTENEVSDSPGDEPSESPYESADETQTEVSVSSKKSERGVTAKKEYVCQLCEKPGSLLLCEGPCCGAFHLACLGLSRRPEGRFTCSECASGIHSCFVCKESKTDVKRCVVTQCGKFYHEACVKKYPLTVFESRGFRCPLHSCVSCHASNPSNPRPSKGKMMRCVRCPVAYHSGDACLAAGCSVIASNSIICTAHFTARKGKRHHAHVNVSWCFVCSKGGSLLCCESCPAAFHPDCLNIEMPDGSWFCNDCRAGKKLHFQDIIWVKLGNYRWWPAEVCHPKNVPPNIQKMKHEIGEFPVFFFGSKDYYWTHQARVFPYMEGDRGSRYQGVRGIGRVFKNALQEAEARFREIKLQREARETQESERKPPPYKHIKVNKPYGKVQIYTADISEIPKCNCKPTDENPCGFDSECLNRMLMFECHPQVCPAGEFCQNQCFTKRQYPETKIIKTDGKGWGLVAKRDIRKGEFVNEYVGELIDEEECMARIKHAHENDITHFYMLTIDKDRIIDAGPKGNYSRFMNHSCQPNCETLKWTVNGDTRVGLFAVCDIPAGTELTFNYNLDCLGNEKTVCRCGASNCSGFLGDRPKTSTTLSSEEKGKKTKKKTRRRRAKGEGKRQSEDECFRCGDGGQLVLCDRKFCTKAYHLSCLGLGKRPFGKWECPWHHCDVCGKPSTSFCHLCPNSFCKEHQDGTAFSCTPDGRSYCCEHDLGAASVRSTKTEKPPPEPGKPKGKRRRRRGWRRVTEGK

Protein Tat = biological target: T3, Protein Tat (Human immunodeficiency virus type 1 group M subtype B (isolate HXB2)(HIV-1), UniProt P04608); type: functional;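 further: tat binding to TAR RNA read out by fluorescence polarization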
T3 sequence (P04608 whole entry): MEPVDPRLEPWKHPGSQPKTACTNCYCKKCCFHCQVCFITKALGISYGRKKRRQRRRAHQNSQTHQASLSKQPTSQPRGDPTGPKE

[6] = A549 cell cytotoxicity, dose response, cytotoxicity control, plate reader, cherry-pick, antagonist series (AID 743412); type: functional, cell-based
Procathepsin L = Procathepsin L (Homo sapiens, UniProt P07711)
Procathepsin L, sequence (P07711 whole entry): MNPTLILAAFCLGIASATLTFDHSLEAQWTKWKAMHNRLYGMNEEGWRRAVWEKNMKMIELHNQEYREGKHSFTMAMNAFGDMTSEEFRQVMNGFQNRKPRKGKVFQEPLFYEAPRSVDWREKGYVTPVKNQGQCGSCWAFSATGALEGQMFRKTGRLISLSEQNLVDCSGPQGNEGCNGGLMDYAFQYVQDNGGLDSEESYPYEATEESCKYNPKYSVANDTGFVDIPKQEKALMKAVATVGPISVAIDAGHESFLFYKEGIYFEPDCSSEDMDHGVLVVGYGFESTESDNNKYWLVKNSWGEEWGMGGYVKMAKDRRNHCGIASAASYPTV

[7] = C. albicans growth with fluconazole, confirmation, fluorescence, retest (AID 2467); type: functional, cell-based
[8] = HepG2 cell cytotoxicity, dose response, cytotoxicity control, plate reader, cherry-pick, antagonist series (AID 743416); type: functional, cell-based

Compound: Cc1cc(C)c(S(=O)(=O)Nc2cc(SCC(=O)O)c(O)c3ccccc23)cc1C
- AC50 [1]: 13 µM (active)

Compound: O=C(O)c1cc(N2N=C(C(F)(F)F)/C(=C/C=C/c3ccco3)C2=O)ccc1Cl
- IC50 (Troponin, cardiac muscle): > 2.65 µM (active)
- IC50 [2]: 11.7 µM (active)
- IC50 [3]: 10.6 µM (active)

Compound: O=C(/C=C/c1ccco1)NC(=S)Nc1cccc(C(=O)O)c1
- IC50 [4]: > 122 µM (inactive)

Compound: CNCc1ccccc1Sc1ccc(O)c(O)c1
- AC50 [5]: > 20 µM (inactive)
- IC50 (Protein Tat): > 100 µM (active)
- AC50 [6]: > 52 µM (inactive)
- IC50 (Procathepsin L): > 59.6 µM (not active)
- EC50 [7]: > 38 µM (not active)
- AC50 [8]: > 52 µM (inactive)
